Assay results as given in PubChem BioAssay (NCI).
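Cells were grown in 96-well plates and exposed to each compound for 48 hours at five concentrations; endpoints were interpolated linearly between bracketing concentrations, or set to the highest concentration if not reached. GI50: concentration for 50% inhibition of growth. TGI is the concentration that stops growth completely.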

Experiments:
Assay in all cases: NCI tumour cell line growth inhibition, 48 h
SW-620 colon = system: SW-620 colon
HT29 colon = system: HT29 colon
HCT-116 colon = system: HCT-116 colon
PC-3 prostate = system: PC-3 prostate
NCI/ADR-RES ovarian = system: NCI/ADR-RES ovarian
UO-31 renal = system: UO-31 renal
NCI-H460 lung = system: NCI-H460 lung
HCT-15 colon = system: HCT-15 colon
OVCAR-4 ovarian = system: OVCAR-4 ovarian
SNB-19 CNS = system: SNB-19 CNS
SF-268 CNS = system: SF-268 CNS
DU-145 prostate = system: DU-145 prostate
UACC-62 melanoma = system: UACC-62 melanoma
MALME-3M melanoma = system: MALME-3M melanoma
KM12 colon = system: KM12 colon
CAKI-1 renal = system: CAKI-1 renal
HL-60(TB) leukemia = system: HL-60(TB) leukemia
ACHN renal = system: ACHN renal
BT-549 breast = system: BT-549 breast
NCI-H226 lung = system: NCI-H226 lung
OVCAR-5 ovarian = system: OVCAR-5 ovarian
RPMI-8226 leukemia = system: RPMI-8226 leukemia
HOP-62 NSCLC = system: HOP-62 NSCLC
COLO 205 colon = system: COLO 205 colon
SF-295 CNS = system: SF-295 CNS
MCF7 breast = system: MCF7 breast
SF-539 CNS = system: SF-539 CNS
U251 CNS = system: U251 CNS

CN(C)CCCNc1c2ccc(Cl)cc2nc2c1oc1ccccc12
GI50 (SW-620 colon): 1.24 µM | TGI (SW-620 colon): 10.1 µM | GI50 (HT29 colon): 1.34 µM | TGI (HT29 colon): 3.58 µM | GI50 (HCT-116 colon): 1.42 µM | TGI (HCT-116 colon): 8.19 µM | GI50 (PC-3 prostate): 2.16 µM | TGI (PC-3 prostate): 6.13 µM | GI50 (NCI/ADR-RES ovarian): 1.91 µM | TGI (NCI/ADR-RES ovarian): 12.6 µM | GI50 (UO-31 renal): 2.09 µM | TGI (UO-31 renal): 12.8 µM | GI50 (NCI-H460 lung): 1.64 µM | TGI (NCI-H460 lung): 8.1 µM | GI50 (HCT-15 colon): 2.35 µM | TGI (HCT-15 colon): 11.1 µM | GI50 (OVCAR-4 ovarian): 2.12 µM | TGI (OVCAR-4 ovarian): 6.89 µM | GI50 (SNB-19 CNS): 3.37 µM | TGI (SNB-19 CNS): 20.5 µM | GI50 (SF-268 CNS): 2.54 µM | TGI (SF-268 CNS): 12.1 µM | GI50 (DU-145 prostate): 3.49 µM | TGI (DU-145 prostate): 79.2 µM | GI50 (UACC-62 melanoma): 5.2 µM | TGI (UACC-62 melanoma): 19.6 µM | GI50 (MALME-3M melanoma): 3.1 µM | TGI (MALME-3M melanoma): 10.6 µM | GI50 (KM12 colon): 2.76 µM | TGI (KM12 colon): 16.8 µM | GI50 (CAKI-1 renal): 1.59 µM | TGI (CAKI-1 renal): 4.39 µM | GI50 (HL-60(TB) leukemia): 2.52 µM | TGI (HL-60(TB) leukemia): 8.94 µM | GI50 (ACHN renal): 1.78 µM | TGI (ACHN renal): 12.2 µM | GI50 (BT-549 breast): 4.12 µM | TGI (BT-549 breast): 14.4 µM | GI50 (NCI-H226 lung): 3.19 µM | TGI (NCI-H226 lung): 11.9 µM | GI50 (OVCAR-5 ovarian): 2.46 µM | TGI (OVCAR-5 ovarian): 7.81 µM | GI50 (RPMI-8226 leukemia): 2.27 µM | TGI (RPMI-8226 leukemia): 5.94 µM | GI50 (HOP-62 NSCLC): 2.61 µM | TGI (HOP-62 NSCLC): 9.05 µM | GI50 (COLO 205 colon): 1.51 µM | TGI (COLO 205 colon): 4.03 µM | GI50 (SF-295 CNS): 3.41 µM | TGI (SF-295 CNS): 15.3 µM | GI50 (MCF7 breast): 1.77 µM | TGI (MCF7 breast): 6.02 µM | GI50 (SF-539 CNS): 1.76 µM | TGI (SF-539 CNS): 3.39 µM | GI50 (U251 CNS): 2.69 µM | TGI (U251 CNS): 10.3 µM
